Where two headings read alike, the source gives them in different places.
Key:
[1] = test system: L-929; parameters: method as in PMID 12931860; details: L-929, murine connective tissue; ref [17]; read-out: IC50 growth inhibition; cited from earlier work
[2] = test system: A-594; assay: Growth inhibition of A-594 cells (MTT assay); assay type: cell-based, human; details: 120 h, read-out: IC50 growth inhibition
Procedure: (§1) Cell lines were obtained from the German Collection of Microorganisms and Cell Cultures (DSMZ). Cell lines 3Y1 and M1 (embryonal fibroblasts from 129/Ola × C57BL/6 mice, [30]) were a generous gift from Dr. S. Miyamoto, Fukoka, Japan, and Dr. P. F. Mühlradt, Braunschweig, Germany. All cell lines were cultivated under conditions recommended by the supplier. Growth inhibition was measured in microtiterplates. Aliquots of 120 μl of the suspended cells (50,000/ml) were given to 60 μl of a serial dilution of the inhibitor. After 5 days, growth was determined using the MTT assay.

[3] = test system: 3Y1; assay: Growth inhibition of 3Y1 cells (MTT assay); assay type: cell-based, rat; details: read-out: IC50 growth inhibition
Procedure: as §1

[4] = test system: M1; assay: Growth inhibition of M1 cells (MTT assay); assay type: cell-based, mouse; details: 120 h, read-out: IC50 growth inhibition
Procedure: as §1

[5] = target: T1, V-ATPase holoenzyme from the midgut of the tobacco hornworm (Manduca sexta, UniProt P31403); assay: Inhibition of purified V-ATPase holoenzyme activity; assay type: biochemical
T1 construct: purified V-ATPase holoenzyme from the midgut of the tobacco hornworm; from tissue; host or cells: midgut of fifth instar Manduca sexta larvae
T1 sequence (P31403 whole entry): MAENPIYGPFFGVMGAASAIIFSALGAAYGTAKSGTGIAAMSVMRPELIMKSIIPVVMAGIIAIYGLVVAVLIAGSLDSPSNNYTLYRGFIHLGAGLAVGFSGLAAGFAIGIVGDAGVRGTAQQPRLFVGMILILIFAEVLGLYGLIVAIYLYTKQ
Procedure: (§2) The V-ATPase holoenzyme was purified as published elsewhere. Preparation of highly purified membranes containing Na^+/K^+-ATPase from pig kidney followed the protocol of Jørgensen with the three main steps of differential centrifugation, incubation with SDS in the presence of ATP and sucrose density gradient centrifugation in a fixed angle rotor, and led to a specific enzyme activity which was in the same range as that reported by the authors. The resulting sample was stored frozen at -20°C. To prepare crude membrane extracts, the hearts of three mice were washed three times with an ice-cold buffer of pH 8.1 consisting of 0.25 M sucrose, 5 mM Tris-HCl, 5 mM EDTA, and 10 mM Pefabloc SC (Biomol), homogenized in 5 ml of this buffer and centrifuged at 4°C for 25 min at 233,000 × gmax in a fixed angle rotor. The resulting pellet was resuspended in 5 ml of a buffer of pH 7.5, consisting of 5 mM Tris-MOPS (3-morpholinopropanesulfonic acid), 10 mM NaCl, 10 mM Pefabloc SC, 9.6 mM 2-mercaptoethanol, 0.53 mM EGTA and 0.1 % Triton X-100. After an aliquot for protein determination had been taken, 10% bovine serum albumin (final concentration) was added to the suspension which was then stored on ice until the activity assays were run. Beef heart mitochondria were isolated by differential centrifugation, following the protocol of Smith by using a blender to homogenize the heart mince. The initial homogenization buffer consisted of 250 mM saccharose, 10 mM KH2PO4, 10 mM Tris, 2 mM EGTA, 2 mM MgCl2, pH 7.4, and further isolation procedures were carried out in the same medium without EGTA [24]. Submitochondrial particles were obtained by ultrasonic treatment of the mitochondria.
(§3) Standard V-ATPase assays with a final volume of 160 μl and a pH of 8.1 consisted of 3–4 μg of protein, 50 mM Tris-MOPS, 3 mM 2-mercaptoethanol, 1 mM MgCl2, 20 mM KCl, 0.003% C12E10, 20 mM NaCl, and 3 mM Tris-HCl. After 5 min of pre-incubation at 30°C with or without inhibitors, 1 mM Tris-ATP was added and after incubation for 2 min the reaction was stopped by placing the tube in liquid nitrogen. Assays using Na^+/K^+-ATPase were performed in 160 μl at pH 7.5 and contained 0.5 μg of protein, 50 mM Tris-MOPS, 5 mM imidazole, 0.2 mM EDTA, 4 mM MgCl2, 20 mM KCl and 100 mM NaCl. After 5 min of pre-incubation at 37°C with or without inhibitors, 3 mM Tris-ATP was added and after 1 min of incubation the reaction was stopped by placing the tube in liquid nitrogen. […] After 5 min of pre-incubation at 30°C with or without inhibitors, 1 mM Tris-ATP was added and after an incubation time of 10 min the reaction was stopped by placing the tubes in liquid nitrogen. ATPase assays with submitochondrial particles from beef heart were performed in a final volume of 1 ml and a pH of 8.0. The samples contained 9–12 μg protein, 50 mM Tris, 50 mM KCl and 2.5 mM MgCl2. After 5 min of preincubation with or without inhibitors, 5 mM ATP was added, and after an additional incubation time of 15 min the reaction was stopped by the addition of 0.4 ml of 20 % TCA.
(§4) Inorganic phosphate produced in the assays of V-ATPase, Na^+/K^+-ATPase and mouse heart F-ATPase was measured according the protocol of Wieczorek et al., while the determination of inorganic phosphate produced in the assays of beef heart F-ATPase followed the method of Fiske and Subarrow using ascorbic acid as reducing agent.
Fifth instar larvae of M. sexta (Lepidoptera, Sphingidae), weighing 6–8 g, were reared under long day conditions (16 h of light) at 27°C using a synthetic diet modified according to Bell et al.

[6] = test system: bacterial growth; details: ref [11],[15],[17]; cited from earlier work
[7] = test system: KB-V1; assay: Growth inhibition of multidrug-resistant KB-V1 cells (MTT assay), with or without verapamil; assay type: cell-based; details: 120 h; KB-V1, mdr human cervix carcinoma; without verapamil; MTT after 5 days
Procedure: The novel antibiotics archazolids and apicularens (Fig. 1) were checked for their impact on the cell growth of a variety of mammalian cell lines from different tissues (Tab. 1). […] Apicularen B was the only exception, with an average IC50 value two orders of magnitude higher. Growth inhibition of the multidrug-resistant cell line KB-V1 was also measured in the presence of verapamil. […] The data in Tab 1. show, that unlike the archazolids, the apicularens are poor substrates of Pgp. To visualize the impact of the antibiotics, PtK2 (potoroo kidney) cells were incubated with the inhibitors and stained for intact acidic lysosomes (Fig. 2). […] The same observation was made with KB-3-1 cells (data not shown). […] Unlike the cell lines listed in Tab. 1, the growth of PtK2 cells was not completely stopped. The same holds true for A-498 cells (human kidney carcinoma). Both cell lines grow epithelial-like. There was obviously a differential reaction of cell lines to V-ATPase inhibitors. For A-431 cells (human epidermoid carcinoma) a dependence on the expression of the EGF receptor was shown.
as §1

[8] = target: T2, F-ATPase (Mus musculus, UniProt P56480); assay: Inhibition of F-ATPase activity in crude membranes from mouse heart; assay type: biochemical
T2 construct: we prepared mitochondria rich crude membranes from mouse heart; from tissue; host or cells: mouse heart, crude membrane extract
Procedure: as §2, §3, §4

[9] = target: T3, F-ATPase (Bos taurus, UniProt P00829); assay: Inhibition of F-ATPase activity in submitochondrial particles from beef heart; assay type: biochemical
T3 construct: Submitochondrial particles were obtained by ultrasonic treatment of the mitochondria; from tissue; host or cells: beef heart mitochondria, submitochondrial particles
Procedure: as §2, §3, §4

[10] = test system: PtK2 cells; assay: Inhibition of lysosomal acidification (LysoTracker staining); assay type: cell-based, potoroo; details: 4 hours with inhibitor
Procedure: PtK2 (ATCC CCL-56) or KB-3-1 cells were grown on glass coverslips (13 mm diameter) in four-well-plates. Exponentially growing cells were incubated with the inhibitors for 4 hours and stained for lysosomes with 50 nM LysoTracker Red DND-99 and for mitochondria with 75 nM MitoTracker Green FM (both from Molecular Probes) at 37°C for 30 min. The nuclei were stained using Hoechst 33258 (5 μg/ml). The coverslips were mounted upside down in PBS, fixed with nail polish, and observed under the fluorescent microscope.

[11] = target: T4, Vo subunit c (Manduca sexta, UniProt P31403); parameters: method as in PMID 12186879; details: previous study; ref [10]; cited from earlier work
T4 construct: from tissue; host or cells: midgut of Manduca sexta larvae (purified V-ATPase)
T4 sequence (P31403 whole entry): as above

[12] = target: T1, V-ATPase holoenzyme from the midgut of the tobacco hornworm; parameters: method as in PMID 12186879; details: ref [10], cited from earlier work
[13] = target: T5, Na+/K+-ATPase (Sus scrofa, UniProt P05024); assay: Inhibition of Na+/K+-ATPase from pig kidney; assay type: biochemical
T5 construct: highly purified, Na^+/K^+-ATPase containing plasma membranes from pig kidney; from tissue; host or cells: pig kidney, purified plasma membranes
Procedure: as §2, §3, §4

[14] = mouse heart crude membranes, specific F-ATPase inhibitors
[15] = beef heart submitochondrial particles, specific F-ATPase inhibitors
[16] = mouse heart crude membranes, inhibitor 1 μM
[17] = beef heart submitochondrial particles, inhibitor 1 μM
[18] = read-out: ATPase activity reduced to (remaining activity)
[19] = experiment 1, inhibitor 0.1 mM, control 19.0
[20] = experiment 1, inhibitor 1 mM, control 19.0
[21] = experiment 2, inhibitor 1 mM, control 15.9

## CNC(=O)O[C@@H](CC(C)C)c1nc([C@H]2OC(=O)/C=C/C/C(C)=C/[C@@H](O)[C@@H](C)\C=C(C)/C=C(C)\C=C\[C@@H](O)[C@H](C)[C@H](OC)/C(C)=C/C=C/[C@@H]2C)cs1 [archazolid B]
[1]
  IC50: 1.1 nM
[2]; Homo sapiens
  IC50: 0.69 nM
[3]; Rattus norvegicus, 3Y1, 120 h
  IC50: 1.1 nM
[4]; Mus musculus, Fibroblast
  IC50: 0.35 nM
[5]
  IC50: ~20 nM
[5]; equivalent of the half-maximal concentration
  IC50 per mg of protein, purified V-ATPase: ca. 0.8 nmol per mg of protein
[6]
  inhibition of bacterial growth: failed to inhibit
[7]
  IC50: 35 nM

## [N-]=[N+]=[N-] [azide, reference compound]
[8]; [14]
  ATPase activity reduced to (remaining activity): around 25%
[9]; [15]
  ATPase activity reduced to (remaining activity): around 25%

## CO/C1=C\C(C)=C\[C@@H](C)[C@@H](O)[C@@H](C)C/C(C)=C/C=C/[C@H](OC)[C@@H]([C@@H](C)[C@@H](O)[C@H](C)[C@@]2(O)C[C@@H](O)[C@H](C)[C@@H](C(C)C)O2)OC1=O [bafilomycin A1, reference compound]
[10]
  red LysoTracker staining indicating acidic lysosomes: disappeared
[1]
  IC50: 3.2 nM
[2]; A-594, human lung carcinoma, MTT after 5 days
  IC50: 0.4 nM
[3]; 120 h, 3Y1, rat embryogenic fibroblast cell line, MTT after 5 days
  IC50: 5.6 nM
[11]
  labelling of / binding to subunit c: prevented
[4]; M1, mouse embryogenic fibroblast cell line, MTT after 5 days
  IC50: 2.6 nM
[7]
  IC50: 7.2 nM

## CO/C1=C\C(C)=C\[C@@H](C)[C@@H](O)[C@@H](C)C/C(C)=C/C=C/[C@H](OC)[C@@H]([C@@H](C)[C@@H](O)[C@H](C)[C@@]2(O)C[C@@H](OC(=O)/C=C/C(=O)NC3=C(O)CCC3=O)[C@H](C)[C@@H](C(C)C)O2)OC1=O [bafilomycin B1]
[11]
  labelling of / binding to subunit c: prevented
[12]
  IC50 per mg of protein, purified V-ATPase: ca. 0.5 nmol per mg of protein
[12]; read-out: half-maximal inhibition concentration of purified V-ATPase
  IC50: ~10 nM

## CO/C1=C\C(C)=C\[C@@H](C)[C@@H](O)[C@@H](C)C/C(C)=C/C=C/[C@H](OC)[C@@H]([C@@H](C)[C@@H](O)[C@H](C)[C@@]2(O)C[C@@H](O)[C@H](C)[C@@H](C(C)C)O2)OC1=O [bafilomycin, reference compound]
[8]; [16]
  ATPase activity reduced to (remaining activity): approximately 80%
[9]; [17]
  ATPase activity reduced to (remaining activity): approximately 80%

## C/C=C/[C@H]1O[C@@](O)([C@@H](C)[C@H](O)[C@H](C)[C@H]2OC(=O)/C(OC)=C/C(C)=C/[C@@H](C)[C@@H](O)[C@@H](CC)[C@@H](O)[C@H](C)C/C(C)=C/C=C/[C@@H]2OC)C[C@@H](O)[C@@H]1C [concanamycin, reference compound]
[8]; [18]
  remaining activity at 1 µM: ~80%
[9]; [18]
  remaining activity at 1 µM: ~80%

## CC[C@H]1/C=C/C=C/C[C@@H](C)[C@H](O)[C@@](C)(O)C(=O)[C@@H](C)[C@H](O)[C@@H](C)C(=O)[C@@H](C)[C@H](O)[C@@H](C)/C=C/C(=O)O[C@@H]2[C@H](C)[C@H](CC1)O[C@]1(CC[C@H](C)[C@H](C[C@@H](C)O)O1)[C@H]2C [oligomycin, reference compound]
[8]; [14]
  ATPase activity reduced to (remaining activity): around 25%
[9]; [15]
  ATPase activity reduced to (remaining activity): around 25%

## C[C@@H]1O[C@@H](O[C@H]2C[C@@H](O)[C@]3(CO)[C@H]4[C@H](O)C[C@]5(C)[C@@H](C6=CC(=O)OC6)CC[C@]5(O)[C@@H]4CC[C@]3(O)C2)[C@H](O)[C@H](O)[C@H]1O [ouabain]
[13]; [19]
  specific activity of Na+/K+-ATPase: 5.2 µmol/mg/min
[13]; [20]
  specific activity of Na+/K+-ATPase: 0 µmol/mg/min
[13]; [21]
  specific activity of Na+/K+-ATPase: 0 µmol/mg/min
[13]; inhibitor 1 mM
  effect on Na+/K+-ATPase activity: completely inhibited

## [O]=[V]([O-])([O-])[O-] [vanadate]
[13]; [19]
  specific activity of Na+/K+-ATPase: 2.0 µmol/mg/min
[13]; [20]
  specific activity of Na+/K+-ATPase: 0 µmol/mg/min
[13]; [21]
  specific activity of Na+/K+-ATPase: 0 µmol/mg/min
[13]; inhibitor 1 mM
  effect on Na+/K+-ATPase activity: completely inhibited

## apicularen
[8]; [16]
  ATPase activity reduced to (remaining activity): approximately 80%
[8]; mouse heart crude membranes, inhibitor 10 μM
  effect of increased inhibitor concentration on F-ATPase activity: no substantial effect
[9]; [17]
  ATPase activity reduced to (remaining activity): approximately 80%
[9]; beef heart submitochondrial particles, inhibitor 10 μM
  effect of increased inhibitor concentration on F-ATPase activity: no substantial effect
